Twelve compounds from patent US7410989B2, “Compounds, methods and compositions useful for the treatment of bovine viral diarrhea virus (BVDV) infection and hepatitis C virus (HCV) infection” (The University of North Carolina at Chapel Hill, priority 2001, dated 2008) can be followed below.

The subject of the assay is BVDV. Description: Screening of antiviral compounds for anti-BVDV activity in MDBK cells; virus titre by immunoperoxidase monolayer assay. The settings on record: for Day 3 Media TCID50/mL / Day 3 Media % Control / Day 7 Media TCID50/mL / Day 7 Media % Control: culture medium. It is filed as cell-based, bovine viral diarrhea virus. As to the method:
2.0 cm^2 wells in a 24-well plate were seeded with 50 μl of medium from 12 ml of MEM-eq (minimum essential medium (MEM) with Earle's salts supplemented with 10% (v/v) equine serum, sodium bicarbonate (0.75 mg/ml), L-glutamine (0.29 mg/ml), penicillin G (100 U/ml), streptomycin (100 μg/ml), and amphotericin B (0.25 μg/ml)), which was derived by trypsinization of a confluent monolayer of Madin Darby Bovine Kidney (MDBK) cells in a 25 cm^2 flask. Cells were incubated at 38.5° C. with 5% CO2 for 24 hours. The average number of cells per well was determined and later used to calculate appropriate multiplicities of infection (MOI) of BVDV virus. […]
The inoculated cells incubated for one hour at 38.5° C. with 5% CO2 in humidified air. The medium was removed from the wells, and the cells washed one time with Ca^2+ and Mg^2+-free PBS comprising antiviral compound (12.5 μM) (cells in the wells not initially treated with antiviral compounds were washed without antiviral compound). […] Three days post-inoculation, medium was removed and stored at −20° C. for assay. […] Seven days post-inoculation, medium was removed and stored at −80° C. for serial dilution & assay.
The MDBK cells were resuspended in MEM-eq with no antiviral compound. Uterine tubal cells (UTC) were freeze-thawed and stored at −80° C. for analysis. UTC lysates were serially diluted with medium from Day 7 and assayed by immunoperoxidase for the presence of BVDV.
All samples were assayed for BVDV using the immunoperoxidase monolayer assay as described in A. Afshar et al., Can J Vet Res; 55:91-93 (1991). Samples were assayed in triplicate by adding 50 μL of MEM-eq containing approximately 2.5×10^3 MDBK cells to 50-μL of each sample supplemented with 50 μL of fresh MEM-eq in a 96-well culture plate. Plates were incubated for 72 h at 38.5° C. in a humidified atmosphere of 5% CO2 and air before the immunoperoxidase labeling technique was performed as follows:
After fixation, potentially infected cells were incubated with monoclonal antibodies D89 (M. L. Vickers et al., J Vet Diagn Invest 2, 300-302 (1990); Xue W et al., J Clin Microbiol 28, 1688-1693 […] specific for E2/gp53, a major envelope glycoprotein of BVDV (Xue W et al., Vet Microbiol 57, 105-118 (1997)) and 20.10.6 specific for NS3-p80, a conserved nonstructural protein (W. V. Corapi et al., Am J Vet Res 51, 1388-1394 (1990)). After washing with PBS and Tween 20 to remove unbound antibodies, peroxidase-conjugated rabbit anti-mouse IgG (Jackson Immuno Research Lab, West Grove, Pa.) was added. After a short incubation period, unbound peroxidase-conjugated antibody was removed by washing with PBS and Tween 20. Finally, the enzyme substrate, aminoethyl carbazole (Zymed Laboratories, Inc., South San Francisco, Calif.), which produces a reddish-brown color when oxidized by horseradish peroxidase, was added. Color change was visualized under light microscopy and compared to known positive and negative controls on each plate.
The tissue culture infective dose 50% (TCID50)/ml of the exposure aliquot was determined by the method of Reed and Muench (L. J. Reed and H. Muench, Am J Hygiene 27, 493-497 (1938). Results of viral detection assays were compared using a Pearson Chi-square test statistic (J. Sall and A. Lehman, JMP Start Statistics (Duxbury Press, Belmont, Calif. (1996), 195-211).

Where [1] appears, read: 12.5 μM compound, BVDV MOI 0.05.
[2] abbreviates: 12.5 μM compound, BVDV MOI 0.05, titre as % of no-antiviral control.
Where [3] appears, read: 12.5 μM compound, BVDV MOI 1.0, titre as % of no-antiviral control.
Setting [4] is: compound at 0.2 μm, BVDV MOI 0.05.
Where [5] appears, read: compound at 0.4 μm, BVDV MOI 0.05.
The mark [6] stands for this setting: compound at 0.7 μm, BVDV MOI 0.05.
[7] abbreviates: compound at 1.5 μm, BVDV MOI 0.05.
The mark [8] stands for this setting: compound at 3 μm, BVDV MOI 0.05.
[9] abbreviates: compound at 6 μm, BVDV MOI 0.05.
The mark [10] stands for this setting: compound at 12 μm, BVDV MOI 0.05.
The mark [11] stands for this setting: compound at 25 μm, BVDV MOI 0.05.
Setting [12] is: 12.5 μM compound, BVDV MOI 0.5, titre as % of no-antiviral control.

As for `N=C(N)c1ccc(-c2ccc(-c3cccc(C(=N)N)c3)[nH]2)cc1` [DB619], under setting [1], the “Day 7 Cell Lysates TCID50/mL” value was found to be 1.10E+06 TCID50/mL, the “Day 3 Media TCID50/mL” value is on record as 3.50E+02 TCID50/mL and the “Day 7 Media TCID50/mL” value was 2.00E+05 TCID50/mL. Also, under setting [2], the “Day 7 Cell Lysates % Control” value came to 55.00%, the “Day 3 Media % Control” value turned out to be 0.18% and the “Day 7 Media % Control” value is listed as 38.46%. In addition, where the note is “12.5 μM compound, BVDV MOI 1.0”, the “Day 7 Cell Lysates TCID50/mL” value came out at 3.50E+05 TCID50/mL, the “Day 3 Media TCID50/mL” value worked out at 6.20E+04 TCID50/mL and the “Day 7 Media TCID50/mL” value worked out at 3.50E+04 TCID50/mL. Moreover, under setting [3], the “Day 7 Cell Lysates % Control” value is 56.45%, the “Day 3 Media % Control” value worked out at 17.71% and the “Day 7 Media % Control” value is given as 100.00%.

As for `N=C(N)Nc1ccc(-c2ccc(-c3ccc(NC(=N)N)cc3)o2)cc1` [DB673], under setting [1], the “Day 7 Cell Lysates TCID50/mL” value is given as 3.50E+04 TCID50/mL, the “Day 3 Media TCID50/mL” value was found to be 1.00E+02 TCID50/mL and the “Day 7 Media TCID50/mL” value was found to be 6.20E+03 TCID50/mL. Also, under setting [2], the “Day 7 Cell Lysates % Control” value is given as 1.75%, the “Day 3 Media % Control” value was 0.05% and the “Day 7 Media % Control” value was 1.19%. Besides, under “12.5 μM compound, BVDV MOI 1.0”, the “Day 7 Cell Lysates TCID50/mL” value is 2.70E+05 TCID50/mL, the “Day 3 Media TCID50/mL” value is listed as 3.50E+02 TCID50/mL and the “Day 7 Media TCID50/mL” value stood at 2.00E+05 TCID50/mL. For the same compound, under setting [3], the “Day 7 Cell Lysates % Control” value is 43.55%, the “Day 3 Media % Control” value was determined as 0.10% and the “Day 7 Media % Control” value was determined as 571.43%.

Turning to `Nc1ccc(-c2ccc(-c3nc4ccc(C5=NCCN5)cc4[nH]3)o2)cc1` [DB 456, 2-[5 (6)-{2-imidazolinyl}-2-benzimidazoyl]-5-(4-aminophenyl)furan], the “Day 3 Cell Lysates % Control” value by setting is: under setting [4], 100.0000%; under setting [5], 1000.0000%; under setting [6], 1000.0000%; under setting [7], 1000.0000%; under setting [8], 177.1429%; under setting [9], 10.0000%. Besides, the “Day 3 Cell Lysates % Control” value is, setting by setting: under setting [10], 1.0000%; under setting [11], 0.5714%. Moreover, the “Day 3 Cell Lysates TCID50/mL” value was found to be 3.50E+05 TCID50/mL under setting [4]; 3.50E+06 TCID50/mL under setting [5]; 3.50E+06 TCID50/mL under setting [6]; 3.50E+06 TCID50/mL under setting [7]; 6.20E+05 TCID50/mL under setting [8]; 3.50E+04 TCID50/mL under setting [9]. Further, the “Day 3 Cell Lysates TCID50/mL” value reads like this: under setting [10], 3.50E+03 TCID50/mL; under setting [11], 2.00E+03 TCID50/mL. Besides, the “Day 3 Media % Control” value stood at 31.5000% under setting [4]; 31.5000% under setting [5]; 31.5000% under setting [6]; 25.5000% under setting [7]; 17.5000% under setting [8]; 1.7500% under setting [9]. Besides, the “Day 3 Media % Control” value is reported as 0.0310% under setting [10] and 0.1750% under setting [11]. Besides, the “Day 3 Media TCID50/mL” value was 6.30E+05 TCID50/mL under setting [4]; 6.30E+05 TCID50/mL under setting [5]; 6.30E+05 TCID50/mL under setting [6]; 5.10E+05 TCID50/mL under setting [7]; 3.50E+05 TCID50/mL under setting [8]; 3.50E+04 TCID50/mL under setting [9]. Also, the “Day 3 Media TCID50/mL” value by setting is: under setting [10], 6.20E+02 TCID50/mL; under setting [11], 3.50E+03 TCID50/mL.

For the compound `O=[N+]([O-])c1ccc(-c2ccc(-c3nc4ccc(C5=NCCN5)cc4[nH]3)o2)cc1` [DB 457, 2-[5 (6)-{2-imidazolinyl}-2-benzimidazoyl]-5-(4-nitrophenyl)furan], under “12.5 μM compound, BVDV MOI 0.5”, the “Day 3 Cell Lysates TCID50/mL” value is recorded as 3.50E+02 TCID50/mL and the “Day 3 Media TCID50/mL” value worked out at 1.00E+02 TCID50/mL. In addition, under setting [12], the “Day 3 Cell Lysates % Control” value is 0.0056% and the “Day 3 Media % Control” value was found to be 0.0029%.

In the case of `CC(C)NC(=N)c1ccc2[nH]c(-c3ccc(-c4ccc([N+](=O)[O-])cc4)o3)nc2c1` [DB 458, 2-[5 (6)-{N-isopropylamidino}-2-benzimidazoyl]-5-(4-nitrophenyl)furan], under “12.5 μM compound, BVDV MOI 0.5”, the “Day 3 Cell Lysates TCID50/mL” value is on record as “Negative” and the “Day 3 Media TCID50/mL” value is “Negative”.

Regarding `CC(C)NC(=N)c1ccc2[nH]c(-c3ccc(-c4ccc(N)cc4)o3)nc2c1` [DB 459, 2-[5(6)-N-isopropylamidino-2-benzimidazoyl]-5-(4-aminophenyl)furan], where the note is “12.5 μM compound, BVDV MOI 0.5”, the “Day 3 Cell Lysates TCID50/mL” value was determined as 1.00E+02 TCID50/mL and the “Day 3 Media TCID50/mL” value is given as “Negative”. For the same compound, the “Day 3 Cell Lysates % Control” value under setting [12] was 0.0016%.

`COc1ccc(-c2ccc(-c3ccc(C4=NCCN4)cc3)o2)cc1` [DB 606]: where the note is “12.5 μM compound, BVDV MOI 0.5”, the “Day 3 Cell Lysates TCID50/mL” value is reported as “Negative” and the “Day 3 Media TCID50/mL” value is on record as “Negative”.

As for `Cc1cc(NC(=N)N)ccc1-c1ccc(-c2ccc(NC(=N)N)cc2C)o1` [DB 680], under “12.5 μM compound, BVDV MOI 0.5”, the “Day 3 Cell Lysates TCID50/mL” value is recorded as “Negative” and the “Day 3 Media TCID50/mL” value is on record as “Negative”.

With `N=C(N)Nc1ccc(-c2ccc(-c3ccc(NC(=N)N)cc3C(F)(F)F)o2)c(C(F)(F)F)c1` [DB 701], for the setting “12.5 μM compound, BVDV MOI 0.5”, the “Day 3 Cell Lysates TCID50/mL” value amounted to 3.50E+04 TCID50/mL and the “Day 3 Media TCID50/mL” value is 6.20E+03 TCID50/mL. Further, under setting [12], the “Day 3 Cell Lysates % Control” value amounted to 0.5645% and the “Day 3 Media % Control” value stood at 0.1771%.

On to `N=C(N)Nc1ccc(-c2ccc(-c3cccc(NC(=N)N)c3)o2)cc1` [DB 705], for which, where the note is “12.5 μM compound, BVDV MOI 0.5”, the “Day 3 Cell Lysates TCID50/mL” value is “Negative” and the “Day 3 Media TCID50/mL” value is listed as “Negative”.

For the compound `N=C(N)Nc1ccc(-c2ccc(-c3ccc(NC(=N)N)cc3Cl)o2)c(Cl)c1` [DB 708], for the setting “12.5 μM compound, BVDV MOI 0.5”, the “Day 3 Cell Lysates TCID50/mL” value was “Negative” and the “Day 3 Media TCID50/mL” value is on record as “Negative”.

For the compound `COc1cc(NC(=N)N)ccc1-c1ccc(-c2ccc(NC(=N)N)cc2OC)o1` [DB 711], under “12.5 μM compound, BVDV MOI 0.5”, the “Day 3 Cell Lysates TCID50/mL” value was 2.00E+07 TCID50/mL and the “Day 3 Media TCID50/mL” value is 2.40E+05 TCID50/mL. Also, under setting [12], the “Day 3 Cell Lysates % Control” value amounted to 322.5806% and the “Day 3 Media % Control” value is given as 6.8571%.
